Source: ChEMBL document CHEMBL3286359, “Synthesis and SAR of substituted pyrazolo[1,5-a]quinazolines as dual mGlu(2)/mGlu(3) NAMs” (Bioorg Med Chem Lett, 2014)
Activity calls are given as the source filed them. The calls are words filed in the database; no cut-off is given here.

What was measured:
[1] = target: Metabotropic glutamate receptor 2 (Rattus norvegicus, UniProt P31421); test: Inhibition of rat mGlu2 receptor transfected in HEK293 cells coexpressing mouse Galpha15 assessed as decrease in glutamate-induced calcium signaling by fluorescence plate reader analysis in presence of glutamate at EC76 concentration; format: functional, cell-based
Chain of Metabotropic glutamate receptor 2 (P31421 whole entry): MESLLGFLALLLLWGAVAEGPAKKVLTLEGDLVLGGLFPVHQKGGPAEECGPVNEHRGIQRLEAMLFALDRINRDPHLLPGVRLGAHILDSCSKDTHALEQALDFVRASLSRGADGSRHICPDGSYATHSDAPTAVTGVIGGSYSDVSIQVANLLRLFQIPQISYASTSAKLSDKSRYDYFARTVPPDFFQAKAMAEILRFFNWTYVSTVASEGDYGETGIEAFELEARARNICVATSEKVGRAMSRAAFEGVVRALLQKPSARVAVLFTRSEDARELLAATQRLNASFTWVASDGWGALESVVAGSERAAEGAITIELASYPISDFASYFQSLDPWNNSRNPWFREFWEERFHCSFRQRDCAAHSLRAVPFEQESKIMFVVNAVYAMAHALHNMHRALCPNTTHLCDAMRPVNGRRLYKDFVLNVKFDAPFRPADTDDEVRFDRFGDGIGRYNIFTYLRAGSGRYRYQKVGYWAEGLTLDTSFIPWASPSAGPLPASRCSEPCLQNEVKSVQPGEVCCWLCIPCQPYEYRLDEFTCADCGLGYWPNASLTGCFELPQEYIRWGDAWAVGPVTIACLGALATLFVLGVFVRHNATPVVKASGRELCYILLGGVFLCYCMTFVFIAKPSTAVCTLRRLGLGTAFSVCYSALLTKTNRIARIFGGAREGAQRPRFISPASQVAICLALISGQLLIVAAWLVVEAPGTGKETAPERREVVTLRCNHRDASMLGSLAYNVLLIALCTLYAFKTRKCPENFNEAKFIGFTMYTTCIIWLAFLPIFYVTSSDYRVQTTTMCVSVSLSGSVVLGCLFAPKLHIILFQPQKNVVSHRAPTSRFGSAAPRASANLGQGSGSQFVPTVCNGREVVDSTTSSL

[2] = target: Metabotropic glutamate receptor 3 (Rattus norvegicus, UniProt P31422); test: Inhibition of rat mGlu3 receptor transfected in HEK293 cells coexpressing mouse Galpha15 assessed as decrease in glutamate-induced calcium signaling by fluorescence plate reader analysis in presence of glutamate at EC87 concentration; format: functional, cell-based
Chain of Metabotropic glutamate receptor 3 (P31422 whole entry): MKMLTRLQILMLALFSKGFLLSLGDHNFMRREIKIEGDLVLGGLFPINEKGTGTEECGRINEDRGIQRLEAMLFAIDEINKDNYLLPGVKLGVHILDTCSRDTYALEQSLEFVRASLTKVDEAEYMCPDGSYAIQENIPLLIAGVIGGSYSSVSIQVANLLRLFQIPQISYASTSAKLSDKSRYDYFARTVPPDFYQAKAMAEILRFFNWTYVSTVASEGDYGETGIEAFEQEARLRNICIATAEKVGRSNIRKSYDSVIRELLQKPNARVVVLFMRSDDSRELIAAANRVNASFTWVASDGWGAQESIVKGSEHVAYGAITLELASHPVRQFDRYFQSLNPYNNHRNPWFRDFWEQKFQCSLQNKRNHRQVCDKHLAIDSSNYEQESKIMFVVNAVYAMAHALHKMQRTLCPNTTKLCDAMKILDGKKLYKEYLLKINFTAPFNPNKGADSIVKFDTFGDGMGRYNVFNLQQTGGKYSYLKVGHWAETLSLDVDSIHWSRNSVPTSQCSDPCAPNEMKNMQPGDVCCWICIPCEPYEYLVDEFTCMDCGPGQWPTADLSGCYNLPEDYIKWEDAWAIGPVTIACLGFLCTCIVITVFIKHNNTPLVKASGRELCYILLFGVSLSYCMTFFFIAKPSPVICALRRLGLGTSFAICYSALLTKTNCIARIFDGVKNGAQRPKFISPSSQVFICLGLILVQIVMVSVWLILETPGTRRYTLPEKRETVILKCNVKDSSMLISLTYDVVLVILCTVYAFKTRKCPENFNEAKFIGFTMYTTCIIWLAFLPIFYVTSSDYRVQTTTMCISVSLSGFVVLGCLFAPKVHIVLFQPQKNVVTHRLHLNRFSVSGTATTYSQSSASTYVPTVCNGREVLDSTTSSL

[3] = target: Metabotropic glutamate receptor 2 (Rattus norvegicus) (UniProt P31421); test: Negative allosteric modulatory activity at rat mGlu2 receptor transfected in HEK293 cells coexpressing mouse Galpha15 assessed as decrease in glutamate-induced calcium signaling by fluorescence plate reader analysis in presence of glutamate at EC76 concentration; format: functional, cell-based
Chain of Metabotropic glutamate receptor 2 (Rattus norvegicus) (P31421 19-872 limits assumed): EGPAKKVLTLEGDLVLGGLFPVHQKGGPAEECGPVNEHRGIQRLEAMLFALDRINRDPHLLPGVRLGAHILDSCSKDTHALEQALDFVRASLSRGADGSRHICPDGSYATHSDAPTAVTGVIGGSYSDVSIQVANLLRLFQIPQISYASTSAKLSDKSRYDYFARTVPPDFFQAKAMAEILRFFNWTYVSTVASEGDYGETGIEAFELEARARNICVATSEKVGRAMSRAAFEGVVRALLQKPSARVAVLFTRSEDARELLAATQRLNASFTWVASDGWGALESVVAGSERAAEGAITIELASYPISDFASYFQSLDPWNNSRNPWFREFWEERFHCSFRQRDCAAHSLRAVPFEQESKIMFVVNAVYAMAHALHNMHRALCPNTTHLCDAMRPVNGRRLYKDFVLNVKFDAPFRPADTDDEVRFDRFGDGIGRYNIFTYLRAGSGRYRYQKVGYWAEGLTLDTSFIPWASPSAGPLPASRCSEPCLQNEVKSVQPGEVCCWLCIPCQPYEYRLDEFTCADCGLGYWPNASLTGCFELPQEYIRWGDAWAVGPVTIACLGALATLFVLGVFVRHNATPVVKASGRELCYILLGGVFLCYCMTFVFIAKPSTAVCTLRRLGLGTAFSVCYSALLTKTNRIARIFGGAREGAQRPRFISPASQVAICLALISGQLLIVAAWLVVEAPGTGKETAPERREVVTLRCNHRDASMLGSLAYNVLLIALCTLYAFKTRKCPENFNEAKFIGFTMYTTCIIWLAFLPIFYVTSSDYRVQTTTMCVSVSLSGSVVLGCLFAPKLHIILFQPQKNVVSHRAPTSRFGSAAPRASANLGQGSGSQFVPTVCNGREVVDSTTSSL

[4] = target: Metabotropic glutamate receptor 2 (Rattus norvegicus) (UniProt P31421); test: Inhibition of rat mGlu2 receptor assessed as decrease in glutamate-induced calcium signaling at 10 uM by fluorescence plate reader analysis; format: functional
[5] = target: Metabotropic glutamate receptor 5 (Rattus norvegicus) (UniProt P31424); test: Activity at rat mGlu5 receptor assessed as glutamate-induced calcium signaling at 10 uM by fluorescence plate reader analysis; format: functional
[6] = target: Metabotropic glutamate receptor 4 (Rattus norvegicus) (UniProt P31423); test: Activity at rat mGlu4 receptor assessed as glutamate-induced GIRK response at 10 uM
Chain of Metabotropic glutamate receptor 4 (Rattus norvegicus) (P31423 whole entry): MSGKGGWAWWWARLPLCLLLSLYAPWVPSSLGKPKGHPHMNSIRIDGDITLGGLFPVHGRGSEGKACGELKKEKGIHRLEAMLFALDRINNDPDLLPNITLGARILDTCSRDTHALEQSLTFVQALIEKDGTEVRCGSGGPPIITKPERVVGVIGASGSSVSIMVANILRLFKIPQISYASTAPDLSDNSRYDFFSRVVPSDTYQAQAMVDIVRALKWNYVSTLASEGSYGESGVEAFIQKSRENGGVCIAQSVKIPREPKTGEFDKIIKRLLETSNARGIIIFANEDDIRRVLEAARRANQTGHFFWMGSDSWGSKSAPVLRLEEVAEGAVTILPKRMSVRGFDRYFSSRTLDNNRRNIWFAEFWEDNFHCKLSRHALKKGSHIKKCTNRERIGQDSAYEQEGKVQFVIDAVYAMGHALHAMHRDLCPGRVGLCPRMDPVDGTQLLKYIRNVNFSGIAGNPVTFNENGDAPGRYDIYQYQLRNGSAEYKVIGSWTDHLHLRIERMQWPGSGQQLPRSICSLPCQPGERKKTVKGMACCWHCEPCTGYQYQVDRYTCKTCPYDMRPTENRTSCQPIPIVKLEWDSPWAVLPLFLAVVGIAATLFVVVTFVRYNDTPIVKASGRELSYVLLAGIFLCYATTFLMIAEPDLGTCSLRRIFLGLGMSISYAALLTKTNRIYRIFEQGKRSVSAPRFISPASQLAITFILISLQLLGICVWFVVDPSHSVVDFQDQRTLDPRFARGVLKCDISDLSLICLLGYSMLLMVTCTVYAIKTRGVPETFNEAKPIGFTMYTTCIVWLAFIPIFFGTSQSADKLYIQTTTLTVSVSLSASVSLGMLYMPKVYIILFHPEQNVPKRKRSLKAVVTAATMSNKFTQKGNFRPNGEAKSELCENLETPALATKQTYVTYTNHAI

[7] = target: Metabotropic glutamate receptor 6 (Homo sapiens) (UniProt O15303); test: Activity at human mGlu6 receptor assessed as glutamate-induced GIRK response at 10 uM
[8] = target: Metabotropic glutamate receptor 7 (Rattus norvegicus) (UniProt P35400); test: Activity at rat mGlu7 receptor assessed as glutamate-induced GIRK response at 10 uM
[9] = target: Metabotropic glutamate receptor 8 (Rattus norvegicus) (UniProt P70579); test: Activity at rat mGlu8 receptor assessed as glutamate-induced GIRK response at 10 uM
Chain of Metabotropic glutamate receptor 8 (Rattus norvegicus) (P70579 whole entry): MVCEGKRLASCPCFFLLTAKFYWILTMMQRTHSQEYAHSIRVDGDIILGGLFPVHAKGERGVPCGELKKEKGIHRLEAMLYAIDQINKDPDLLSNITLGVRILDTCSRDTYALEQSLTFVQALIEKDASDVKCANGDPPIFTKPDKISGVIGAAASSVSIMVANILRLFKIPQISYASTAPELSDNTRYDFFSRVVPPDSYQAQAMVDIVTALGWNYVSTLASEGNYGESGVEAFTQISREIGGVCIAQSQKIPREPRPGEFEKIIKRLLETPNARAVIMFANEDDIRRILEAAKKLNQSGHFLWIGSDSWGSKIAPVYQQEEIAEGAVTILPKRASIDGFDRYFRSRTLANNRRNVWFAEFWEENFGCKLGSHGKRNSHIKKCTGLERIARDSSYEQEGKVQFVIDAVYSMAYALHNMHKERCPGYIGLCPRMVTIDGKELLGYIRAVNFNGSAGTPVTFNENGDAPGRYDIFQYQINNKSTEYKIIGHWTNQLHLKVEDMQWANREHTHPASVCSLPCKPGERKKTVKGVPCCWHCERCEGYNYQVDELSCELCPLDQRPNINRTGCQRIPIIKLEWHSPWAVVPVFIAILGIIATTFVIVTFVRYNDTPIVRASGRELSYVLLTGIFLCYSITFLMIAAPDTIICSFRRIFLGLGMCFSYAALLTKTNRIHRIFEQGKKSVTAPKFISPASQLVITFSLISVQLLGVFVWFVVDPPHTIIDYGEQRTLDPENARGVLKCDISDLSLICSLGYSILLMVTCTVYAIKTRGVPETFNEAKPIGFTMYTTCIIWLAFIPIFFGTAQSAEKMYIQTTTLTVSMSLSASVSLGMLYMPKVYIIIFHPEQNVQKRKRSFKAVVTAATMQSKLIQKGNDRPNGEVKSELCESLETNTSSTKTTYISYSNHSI

[10] = test system: Plasma; test: Fraction unbound in human plasma; format: ADME, cell-free
[11] = test system: Plasma; test: Fraction unbound in rat plasma; format: ADME, cell-free
[12] = target: Metabotropic glutamate receptor 3 (Rattus norvegicus) (UniProt P31422); conditions: 10 uM
Description: Inhibition of rat mGlu3 receptor assessed as decrease in glutamate-induced calcium signaling at 10 uM by fluorescence plate reader analysis

Cn1c(=O)c2ccc(-c3cncnc3)cc2n2nc(-c3ccccc3)cc12
IC50 [1]: 0.245 µM
IC50 [2]: 0.078 µM
Activity [3]: Dose-dependent effect
inhibition [4]: Active
Activity [5]: inactive
Activity [6]: inactive
Activity [7]: inactive
Activity [8]: inactive
Activity [9]: inactive
Fu [10]: 0.008
Fu [11]: 0.003
inhibition [12]: Active
